According to patent publication US7741311B2, “Composition and method for treating occlusive vascular diseases, nerve regeneration, and wound healing” (priority 2005, dated 2010):

Columns and labels:
[1] = system: chick chorioallantoic membrane (CAM); test: neovascularization in the chick chorioallantoic membrane (CAM) model; assay type: in vivo; conditions: n = 8
Method: In vivo neovascularization was examined by the method previously described by Auerbach et al. (Auerbach et al., J. Dev. Biol., 41:391-394 (1974), which is hereby incorporated by reference in its entirety). Ten-day old embryos were purchased from Spafas, Inc. (Preston, Conn.) and were incubated at 37° C. with 55% relative humidity. In the dark with the help of a candling lamp, a small hole was punctured in the shell concealing the air sac with a hypodermic needle. A second hole was punctured in the shell on the broadside of the egg directly over an avascular portion of the embryonic membrane, as observed during candling. […]
(§1) CAM tissue directly beneath FGF2-saturated filter disk was resected from embryos treated 48 hours prior with test compound or control. […] Digital images of CAM sections adjacent to filters were collected using a 3-CCD color video camera system (Toshiba America, New York, N.Y.) and analyzed using Image-Pro Plus software (Media Cybernetics, Silver Spring, Md.).
as §1, with “48 h” for “48 hours”, “with” for “with test”, “analyzed with the” for “analyzed using”

[2] = system: human dermal micro-vascular endothelial cells (HDMEC); test: three-dimensional in vitro sprout angiogenesis assay (endothelial cells on gelatin-coated beads in fibrin gel); assay type: cell-based; conditions: Ch 2 (10 μg); sub-threshold levels of VEGF and b-FGF; P<0.01
Method: The effect of low molecular weight sulfated saccharides (molecular weight<5000 Dalton) on micro-vascular endothelial cell sprouting (in Vitro 3D Sprout Angiogenesis) is depicted with respect to culture of HDMEC on micro-carrier beads in FIG. 19. 80% confluent HDMEC (Passage 5-10) are mixed with gelatin-coated Cytodex-3 beads with a ratio of 40 cells per bead. If using 24-well plate for the assay, 150-200 beads per well are used. Cells and beads are suspended with 5 ml EBM+15% normal human serum, mixed gently every one hour for first four hours. Then the mixture culture is left in CO2 incubator overnight. The next morning, 10 ml of fresh EBM+15% HS and culture are added for another three hours. Before experiments, the culture of EC-beads is checked. 500 ul of PBS in a well of 24-well plate is added. 100 ul of the EC-bead culture solution is added to the PBS. The number of beads are observed and counted. The concentration of EC-beads is calculated. […]
Culture of HDMEC on micro-carrier beads: 80% confluent HDMEC (Passage 5-10) were mixed with gelatin-coated Cytodex-3 beads with a ratio of 40 cells per bead. […] The number of beads is counted and the concentration of EC-beads is calculated. […]
Growth factors: VEGF (30 ng/ml)+FGF2 (25 ng/ml) CH2: Sulfated Hexasaccharide at 10 ug/ml. […] A quantitative three-dimensional in vitro assay method was utilized to screen compounds for angiogenic activity. […]

COc1cccc(-c2cc(=O)c3ccccc3o2)c1N [PD9805]
Mean % Inhibition ± SEM ([1]; inhibition of Ch 2 (10 μg) pro-angiogenesis by inhibitor 4.8 μg, P < 0.01): 71 ± 6 % | Mean Branch Points ± SEM ([1]; inhibitor 4.8 μg added to PBS + Ch 2 (10 μg)): 95 ± 8 | blockade of angiogenesis promoted by Ch 2 [2]: blocked
